ChEMBL document CHEMBL1201862, “PubChem BioAssay data set” (2004)
Active and inactive are the calls of the source.

Columns and labels:
[1] = biological target: T1, Coagulation factor XII (Homo sapiens, UniProt P00748); assay type: functional;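 also: activated factor XIIa alpha cleaving a fluorogenic AMC peptide substrate; inhibitor potency from loss of enzyme activity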
T1 sequence (P00748 whole entry): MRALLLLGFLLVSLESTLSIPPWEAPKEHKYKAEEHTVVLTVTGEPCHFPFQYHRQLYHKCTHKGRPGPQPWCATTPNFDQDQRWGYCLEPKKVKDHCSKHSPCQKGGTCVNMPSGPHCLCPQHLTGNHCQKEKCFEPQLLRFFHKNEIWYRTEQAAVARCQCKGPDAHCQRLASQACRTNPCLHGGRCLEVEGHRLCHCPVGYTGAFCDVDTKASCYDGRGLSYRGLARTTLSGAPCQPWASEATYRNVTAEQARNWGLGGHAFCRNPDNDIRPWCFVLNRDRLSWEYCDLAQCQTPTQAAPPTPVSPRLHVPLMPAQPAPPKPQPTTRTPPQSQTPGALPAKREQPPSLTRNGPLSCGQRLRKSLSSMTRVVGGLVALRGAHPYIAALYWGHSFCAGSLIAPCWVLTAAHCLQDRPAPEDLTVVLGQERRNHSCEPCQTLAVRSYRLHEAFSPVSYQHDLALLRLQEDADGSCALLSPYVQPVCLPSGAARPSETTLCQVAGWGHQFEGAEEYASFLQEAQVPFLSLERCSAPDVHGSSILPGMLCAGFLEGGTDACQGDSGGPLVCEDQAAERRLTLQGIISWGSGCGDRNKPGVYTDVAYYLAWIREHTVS

[2] = biological target: Peroxisome proliferator-activated receptor gamma/Nuclear receptor coactivator 2 (Homo sapiens, UniProt P37231); assay type: functional;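 also: agonist potency for raising coactivator recruitment to the receptor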
Chain of Peroxisome proliferator-activated receptor gamma/Nuclear receptor coactivator 2 (P37231 whole entry): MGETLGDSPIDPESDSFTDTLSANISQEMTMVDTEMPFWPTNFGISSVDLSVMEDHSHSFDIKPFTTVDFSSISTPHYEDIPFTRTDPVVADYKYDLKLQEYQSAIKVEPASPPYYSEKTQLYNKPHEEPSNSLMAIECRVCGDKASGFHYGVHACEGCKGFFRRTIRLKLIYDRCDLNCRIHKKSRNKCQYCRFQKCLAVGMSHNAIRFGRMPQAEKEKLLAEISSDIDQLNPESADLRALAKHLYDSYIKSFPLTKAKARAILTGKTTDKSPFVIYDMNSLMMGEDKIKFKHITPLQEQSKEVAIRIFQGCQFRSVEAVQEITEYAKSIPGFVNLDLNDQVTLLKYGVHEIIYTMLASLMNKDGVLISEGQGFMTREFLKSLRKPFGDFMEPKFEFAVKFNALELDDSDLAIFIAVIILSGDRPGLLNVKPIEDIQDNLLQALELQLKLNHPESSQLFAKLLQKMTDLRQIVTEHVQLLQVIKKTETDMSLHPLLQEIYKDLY
Chain of Peroxisome proliferator-activated receptor gamma/Nuclear receptor coactivator 2 (Q15596 whole entry, further chain): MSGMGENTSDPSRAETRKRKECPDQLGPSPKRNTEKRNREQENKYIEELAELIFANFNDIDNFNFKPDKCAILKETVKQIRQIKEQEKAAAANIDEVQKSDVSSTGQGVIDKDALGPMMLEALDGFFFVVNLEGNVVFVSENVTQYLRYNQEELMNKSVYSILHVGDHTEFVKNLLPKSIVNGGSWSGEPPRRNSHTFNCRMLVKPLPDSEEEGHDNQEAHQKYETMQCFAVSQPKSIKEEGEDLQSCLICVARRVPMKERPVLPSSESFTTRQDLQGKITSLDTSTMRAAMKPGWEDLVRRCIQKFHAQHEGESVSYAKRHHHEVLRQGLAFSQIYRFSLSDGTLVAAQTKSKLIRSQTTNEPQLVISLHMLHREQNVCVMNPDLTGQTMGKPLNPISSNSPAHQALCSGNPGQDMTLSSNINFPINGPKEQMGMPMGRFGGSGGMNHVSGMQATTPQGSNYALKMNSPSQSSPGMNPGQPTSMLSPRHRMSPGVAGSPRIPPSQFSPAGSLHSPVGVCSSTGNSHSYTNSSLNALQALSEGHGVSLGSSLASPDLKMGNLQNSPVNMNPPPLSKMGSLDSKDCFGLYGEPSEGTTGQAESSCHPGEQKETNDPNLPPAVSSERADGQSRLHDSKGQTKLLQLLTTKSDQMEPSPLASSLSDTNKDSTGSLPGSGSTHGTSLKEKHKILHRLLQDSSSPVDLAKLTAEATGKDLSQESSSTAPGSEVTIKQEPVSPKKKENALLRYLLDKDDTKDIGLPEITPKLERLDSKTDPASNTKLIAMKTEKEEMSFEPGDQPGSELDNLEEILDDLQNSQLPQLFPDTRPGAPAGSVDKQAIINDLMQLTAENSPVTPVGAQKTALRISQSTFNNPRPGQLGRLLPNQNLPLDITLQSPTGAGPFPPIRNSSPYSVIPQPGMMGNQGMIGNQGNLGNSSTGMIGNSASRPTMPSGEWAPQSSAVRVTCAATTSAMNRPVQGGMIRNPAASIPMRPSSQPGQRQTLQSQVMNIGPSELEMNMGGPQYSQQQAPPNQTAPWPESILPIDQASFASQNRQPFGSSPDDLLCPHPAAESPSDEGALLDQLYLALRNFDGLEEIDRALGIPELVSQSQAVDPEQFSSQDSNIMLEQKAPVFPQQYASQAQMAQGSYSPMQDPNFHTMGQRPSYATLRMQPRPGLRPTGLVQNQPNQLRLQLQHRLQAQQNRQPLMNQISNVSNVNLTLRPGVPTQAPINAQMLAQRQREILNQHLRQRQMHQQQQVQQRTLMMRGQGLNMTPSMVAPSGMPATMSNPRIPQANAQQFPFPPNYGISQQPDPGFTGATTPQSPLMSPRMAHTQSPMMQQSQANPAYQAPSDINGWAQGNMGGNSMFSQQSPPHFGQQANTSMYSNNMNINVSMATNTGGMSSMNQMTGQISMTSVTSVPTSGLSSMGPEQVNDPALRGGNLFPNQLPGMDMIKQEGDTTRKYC

[3] = biological target: Peroxisome proliferator-activated receptor gamma/Nuclear receptor coactivator 1 (Homo sapiens, UniProt P37231); assay type: functional;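 also: agonist potency as compounds enhance coactivator SRC-1 recruitment to PPARgamma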
[4] = biological target: Peroxisome proliferator-activated receptor gamma/Nuclear receptor coactivator 3 (Homo sapiens, UniProt P37231); assay type: functional;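 also: agonist potency for raising coactivator recruitment to the receptor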
[5] = biological target: Induced myeloid leukemia cell differentiation protein Mcl-1 (Homo sapiens, UniProt Q07820); assay type: functional
Chain of Induced myeloid leukemia cell differentiation protein Mcl-1 (Q07820 whole entry): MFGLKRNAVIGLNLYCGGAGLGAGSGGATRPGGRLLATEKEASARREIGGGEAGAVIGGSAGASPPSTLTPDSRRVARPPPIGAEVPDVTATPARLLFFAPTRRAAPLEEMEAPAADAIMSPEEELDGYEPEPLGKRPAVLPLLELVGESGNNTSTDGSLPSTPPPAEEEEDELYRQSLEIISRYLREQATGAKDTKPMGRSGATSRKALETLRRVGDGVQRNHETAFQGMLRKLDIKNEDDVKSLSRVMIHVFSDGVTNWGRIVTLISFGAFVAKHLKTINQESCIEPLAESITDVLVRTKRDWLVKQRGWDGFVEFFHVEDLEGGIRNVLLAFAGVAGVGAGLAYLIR

[6] = biological target: DNA dC->dU-editing enzyme APOBEC-3G (Homo sapiens, UniProt Q9HC16); assay type: functional;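 also: Dose-response counterscreen measuring inhibition of APOBEC3G DNA deaminase activity, run while confirming APOBEC3A inhibitors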
Chain of DNA dC->dU-editing enzyme APOBEC-3G (Q9HC16 whole entry): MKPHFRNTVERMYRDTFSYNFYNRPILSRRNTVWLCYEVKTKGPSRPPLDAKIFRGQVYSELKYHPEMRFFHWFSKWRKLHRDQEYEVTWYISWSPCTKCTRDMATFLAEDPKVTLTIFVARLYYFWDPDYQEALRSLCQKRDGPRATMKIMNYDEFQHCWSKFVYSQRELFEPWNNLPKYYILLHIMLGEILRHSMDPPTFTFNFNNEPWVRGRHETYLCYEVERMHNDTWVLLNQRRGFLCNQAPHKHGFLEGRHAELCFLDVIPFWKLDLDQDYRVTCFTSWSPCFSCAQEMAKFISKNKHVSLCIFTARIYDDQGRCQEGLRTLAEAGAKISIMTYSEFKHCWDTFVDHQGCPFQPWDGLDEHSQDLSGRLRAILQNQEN

[7] = biological target: DNA dC->dU-editing enzyme APOBEC-3A (Homo sapiens, UniProt P31941); assay: Dose Response confirmation of small molecule APOBEC3A DNA Deaminase Inhibitors via a fluorescence-based single-stranded DNA deaminase assay. [Related pubchem assays (depositor defined):AID493011, AID493024]; assay type: functional
Chain of DNA dC->dU-editing enzyme APOBEC-3A (P31941 whole entry): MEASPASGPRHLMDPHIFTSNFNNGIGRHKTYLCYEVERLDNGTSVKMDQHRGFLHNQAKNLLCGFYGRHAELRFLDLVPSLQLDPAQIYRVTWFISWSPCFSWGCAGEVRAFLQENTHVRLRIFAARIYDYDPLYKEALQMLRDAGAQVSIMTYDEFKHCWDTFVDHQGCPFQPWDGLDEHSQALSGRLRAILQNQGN

[8] = biological target: T2, Zinc finger protein mex-5 (Caenorhabditis elegans, UniProt Q9XUB2); assay: MEX-5/TCR-2 RNA interaction inhibitors, dose response, biochemical, C. elegans, fluorescence polarization (AID 1960)
T2 sequence (Q9XUB2 whole entry): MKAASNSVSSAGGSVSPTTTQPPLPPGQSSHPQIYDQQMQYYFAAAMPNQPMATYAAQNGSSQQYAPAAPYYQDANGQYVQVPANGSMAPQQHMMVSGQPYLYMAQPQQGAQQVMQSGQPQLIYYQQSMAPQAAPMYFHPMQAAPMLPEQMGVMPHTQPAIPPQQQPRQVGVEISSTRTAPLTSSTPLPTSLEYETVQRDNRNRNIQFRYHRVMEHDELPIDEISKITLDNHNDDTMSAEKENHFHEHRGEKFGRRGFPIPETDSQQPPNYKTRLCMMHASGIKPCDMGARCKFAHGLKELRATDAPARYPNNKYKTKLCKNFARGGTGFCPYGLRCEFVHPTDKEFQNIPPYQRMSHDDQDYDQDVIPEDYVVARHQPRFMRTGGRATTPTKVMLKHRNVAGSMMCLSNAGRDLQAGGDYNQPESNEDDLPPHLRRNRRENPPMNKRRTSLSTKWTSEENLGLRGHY

[9] = biological target: Genome polyprotein (dengue virus type 2, UniProt P29990); assay: Dengue-2 NS5 methyltransferase inhibitors, primary screen, biochemical, confirmation dose response (AID 588689); assay type: functional
Chain of Genome polyprotein (P29990 2492-3391 limits assumed): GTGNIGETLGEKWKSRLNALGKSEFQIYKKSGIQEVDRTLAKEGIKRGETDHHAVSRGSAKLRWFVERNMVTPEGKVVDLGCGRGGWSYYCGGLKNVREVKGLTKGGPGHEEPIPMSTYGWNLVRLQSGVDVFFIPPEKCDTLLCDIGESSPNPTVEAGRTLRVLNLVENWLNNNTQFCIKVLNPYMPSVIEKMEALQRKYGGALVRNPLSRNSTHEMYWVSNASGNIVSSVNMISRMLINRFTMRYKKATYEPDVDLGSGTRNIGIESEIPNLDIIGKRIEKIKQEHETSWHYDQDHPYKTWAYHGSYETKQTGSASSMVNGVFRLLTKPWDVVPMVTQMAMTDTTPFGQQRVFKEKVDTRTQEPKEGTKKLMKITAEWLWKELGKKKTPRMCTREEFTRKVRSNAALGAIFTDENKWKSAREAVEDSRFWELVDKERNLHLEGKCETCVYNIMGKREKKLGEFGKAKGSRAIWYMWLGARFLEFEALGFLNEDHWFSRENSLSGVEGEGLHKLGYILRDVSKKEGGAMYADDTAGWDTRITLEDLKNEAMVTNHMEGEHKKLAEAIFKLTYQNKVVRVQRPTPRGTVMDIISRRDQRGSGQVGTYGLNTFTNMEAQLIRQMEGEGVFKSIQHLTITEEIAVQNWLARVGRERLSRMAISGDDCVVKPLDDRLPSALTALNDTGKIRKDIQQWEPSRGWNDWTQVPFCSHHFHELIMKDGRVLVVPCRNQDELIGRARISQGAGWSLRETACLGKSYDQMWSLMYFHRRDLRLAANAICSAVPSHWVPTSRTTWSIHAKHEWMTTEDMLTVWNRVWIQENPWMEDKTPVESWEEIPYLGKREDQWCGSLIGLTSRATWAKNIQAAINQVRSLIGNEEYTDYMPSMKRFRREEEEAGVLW

[10] = biological target: T3, Carboxy-terminal domain RNA polymerase II polypeptide A small phosphatase 1 (Homo sapiens, UniProt Q9GZU7); assay: inhibitors of CTDSP1, concentration-response testing, biochemical assay, absorbance-based, actives from ultra-high-throughput screening (AID 540297); assay type: functional
T3 sequence (Q9GZU7 whole entry): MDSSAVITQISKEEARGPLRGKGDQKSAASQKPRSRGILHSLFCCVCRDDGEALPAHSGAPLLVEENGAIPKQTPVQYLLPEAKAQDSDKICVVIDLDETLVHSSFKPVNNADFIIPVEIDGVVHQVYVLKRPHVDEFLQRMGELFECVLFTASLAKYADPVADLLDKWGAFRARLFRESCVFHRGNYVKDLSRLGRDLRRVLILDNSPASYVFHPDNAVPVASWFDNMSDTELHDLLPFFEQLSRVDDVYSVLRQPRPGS

[11] = biological target: T4, RNA-binding protein pos-1 (Caenorhabditis elegans, UniProt G5EF15); assay: inhibitors of POS-1/mex-3 RNA binding, dose response, biochemical, fluorescence polarization (AID 1964);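 also: purified POS-1 fused to maltose binding protein made in E. coli; potency of compounds blocking POS-1 binding to fluorescent RNA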
T4 sequence (G5EF15 whole entry): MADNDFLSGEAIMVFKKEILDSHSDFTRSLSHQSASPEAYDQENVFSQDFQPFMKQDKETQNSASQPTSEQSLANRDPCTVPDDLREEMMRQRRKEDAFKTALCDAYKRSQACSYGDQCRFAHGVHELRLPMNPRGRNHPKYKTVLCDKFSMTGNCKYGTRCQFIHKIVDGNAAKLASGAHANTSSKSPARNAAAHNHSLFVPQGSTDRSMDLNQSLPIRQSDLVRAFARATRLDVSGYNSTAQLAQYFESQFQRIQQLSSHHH

[12] = biological target: Nucleotide-binding oligomerization domain-containing protein 2 (Homo sapiens, UniProt Q9HC29); assay: NOD2 signaling inhibitors, cell-based, luminescence, uHTS, HEK293 (AID 1566); assay type: functional
[13] = test system: HEK293; assay: cells; assay type: functional, cell-based; conditions: Homo sapiens
[14] = test system: HEK293; assay: cells; assay type: functional, cell-based; conditions: Homo sapiens; remark: listed apart in the source
[15] = test system: HEK293; assay: cells; assay type: functional, cell-based; conditions: Homo sapiens; remark: listed apart in the source
[16] = test system: HEK293; assay: NOD2 signaling inhibitors in MDP-stimulated cells, cell-based, uHTS, luminescence (AID 2001); assay type: functional; conditions: Homo sapiens
[17] = test system: HEK293; assay: NOD1 signaling inhibitors, primary screen, cell-based, luminescence, uHTS (AID 1578); assay type: functional; conditions: Homo sapiens
[18] = biological target: T5, Alkaline phosphatase, tissue-nonspecific isozyme (Homo sapiens, UniProt P05186); assay: human TNAP enzyme inhibitors, SAR follow-up, biochemical, luminescent, dose response (AID 1056)
T5 sequence (P05186 whole entry): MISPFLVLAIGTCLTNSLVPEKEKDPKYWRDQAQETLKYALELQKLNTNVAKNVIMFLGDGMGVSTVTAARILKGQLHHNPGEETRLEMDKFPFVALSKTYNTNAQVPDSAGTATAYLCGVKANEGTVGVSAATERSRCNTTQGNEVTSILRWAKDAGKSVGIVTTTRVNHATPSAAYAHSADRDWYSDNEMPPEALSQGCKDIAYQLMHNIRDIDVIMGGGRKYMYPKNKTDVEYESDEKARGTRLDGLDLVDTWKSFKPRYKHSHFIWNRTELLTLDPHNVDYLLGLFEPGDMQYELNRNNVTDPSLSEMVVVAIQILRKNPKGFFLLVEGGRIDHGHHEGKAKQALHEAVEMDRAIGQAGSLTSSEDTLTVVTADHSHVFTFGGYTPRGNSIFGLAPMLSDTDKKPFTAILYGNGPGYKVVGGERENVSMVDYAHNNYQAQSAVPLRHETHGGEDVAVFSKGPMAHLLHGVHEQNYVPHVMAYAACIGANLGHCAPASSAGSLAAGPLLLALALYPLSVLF

[19] = test system: Escherichia coli; assay: microbe, parasite or virus in culture
[20] = biological target: G-protein coupled receptor 55 (Homo sapiens, UniProt Q9Y2T6); assay: GPR55 antagonists blocking LPI-driven arrestin recruitment, primary screen, imaging, U2OS, beta-arrestin-GFP, LPI agonist (AID 2013); assay type: functional;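 also: antagonist potency measured as reduced agonist-driven arrestin aggregation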
Chain of G-protein coupled receptor 55 (Q9Y2T6 whole entry): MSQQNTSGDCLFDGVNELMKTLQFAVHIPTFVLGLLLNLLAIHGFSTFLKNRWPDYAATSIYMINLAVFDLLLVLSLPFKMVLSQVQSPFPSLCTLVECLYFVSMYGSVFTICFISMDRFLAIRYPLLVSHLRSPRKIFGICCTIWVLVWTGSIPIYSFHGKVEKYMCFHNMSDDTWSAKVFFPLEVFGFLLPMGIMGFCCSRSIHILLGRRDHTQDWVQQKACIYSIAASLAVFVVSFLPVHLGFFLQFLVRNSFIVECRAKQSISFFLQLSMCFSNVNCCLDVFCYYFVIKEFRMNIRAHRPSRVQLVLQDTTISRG

## CCc1c(C)nc2ncnn2c1N1CCC(C(=O)Nc2ccccc2)CC1
[1]
  IC50: > 50 µM (inactive)

## CC(C)(O)C#Cc1ccc(CN2CCN(C3CCCCC3)C(CCO)C2)cc1 (stereo not drawn)
[2]
  EC50: > 79.4 µM (not active)
[3]
  EC50: > 79.4 µM (not active)
[4]
  EC50: > 79.4 µM (not active)
[5]
  IC50: 21.2 µM (not active)

## Cc1ccc(NC(=O)CSc2nnc([C@H](C)NC(=O)OC(C)(C)C)o2)c(C)c1
[1]
  IC50: > 50 µM (inactive)

## Cc1cc(C(=O)O)ccc1-c1ccc(/C=C2\NC(=O)N(Cc3ccc(F)cc3)C2=O)o1
[6]
  IC50: 42 µM (active)
[7]
  IC50: 20.8 µM (active)
[8]
  EC50: 191 µM (active)
[9]
  IC50: > 100 µM (active)
[10]
  IC50: 3.42 µM (active)
[11]
  EC50: 195 µM (active)

## Cc1ccc(S(=O)(=O)/C(=C/Cl)NC(=O)c2ccccc2)cc1
[12]
  EC50: 14.3 µM (active)
[13]
  IC50: > 20 µM (inactive)
[14]
  IC50: 3.6 µM (active)
[15]
  IC50: > 20 µM (inactive)
[16]
  IC50: 3.32 µM (active)
[17]
  EC50: 6.37 µM (active)

## O=C(Cn1ccnc1-c1ccccc1)c1ccc(O)c(O)c1
[18]
  IC50: > 100 µM (inactive)

## CC(C)(C)OC(=O)[C@H](Cc1ccccc1)NC(=O)c1[nH]cnc1C(=O)NC1CCN(C(=O)OC(C)(C)C)CC1
[19]
  AC50: 19 µM (active)
[20]
  IC50: 5.3 µM (active)

## CCCCn1c(N)c(N(CCOC)C(=O)c2cc(-c3ccc(OC)c(OC)c3)nc3ccccc23)c(=O)[nH]c1=O
[6]
  IC50: 9.16 µM (active)
[7]
  IC50: 7.62 µM (active)
